# Experimental data: patent US10624887B2, “Compositions of (-)-17-(cyclobutylmethyl)morphinan-3,14,-diol” (priority 2010, dated 2020)
# How the values were obtained:
# Format in all cases: in vivo, Wistar rats
# [1] = test system: paclitaxel induced painful neuropathy; experiment: Paclitaxel induced painful neuropathy, cold allodynia (acetone drop test); details: paclitaxel neuropathic rats
# Description: The aim of this study was to evaluate the effect of oral administration of butorphanol in rats with paclitaxel induced painful neuropathy. The primary measurements were made mechanical and thermal allodynia designed to detect effects of the treatment(s) on neuropathic pain.
# (§1) Wistar rats weighing 250±20 g were maintained on standard laboratory diet and having free access to tap water ad lib were employed in the present study. They were housed in the animal house and were exposed to 12 hr cycle of light and dark. The experiments were conducted in a semi-sound proof laboratory. Care of the animals was in accordance with guidelines for experimentation on animals.
# Rats were injected on five alternate days (day 4, 6, 8, 10 & 12) with paclitaxel (2 mg/kg i.p.) using an injection volume of 2 ml/kg. Thus, the cumulative dose of paclitaxel was computed to be 10 mg/kg. Tests took place ten days after the last injection and continued over the next three weeks. […]
# (§2) For the assessment of cold allodynia, which was stable for 3 weeks, the rats were placed on a wire mesh covered with a plastic dome and were allowed to habituate until the exploratory behavior diminished. Cold allodynia was measured as the number of foot withdrawal responses after application of stimuli to the plantar surface of the paw. […] Acetone was applied two times (once every 5 min) on the left paw, and the number of reactions (shaking, tapping, or licking) was counted during 30 sec. […] The score was expressed as accumulated numbers of reactions over the trials and determined before and 30 and 60 min after administration of the test drugs. Each individual test was expressed as a percentage of maximum possible effect (% MPE): […]
# (§3) MPE (%) at 30 min time point was employed as a quantitative measure of the analgesic effect of the test drugs.
# (§4) The anti-nociceptive effect was plotted assessed having time (relative to dosing time point) on the x-axis and percent maximum possible effect (% MPE) on the y-axis. The results were expressed as mean±standard error of means (S.E.M.). […]
# nociception in rats = experiment: Eddy's hot plate test; details: butorphanol 1 mg/kg
# Procedure: Heat is often used as a noxious stimulus in models of pain. Typically, the latency of the rat's response to the thermal stimulus is recorded as the dependent variable. To determine whether a test compound has analgesic properties, the latency responses of treated and control rats are evaluated. […] The latency of response will vary depending on the type of heat stimulus used. In the hot-plate assay, the rat is placed on a heated surface and the latency for the rat to respond to the stimulus, by licking its paw or jumping, is recorded. […]
# Three groups were employed in the present study with each group comprising of 8 animals. […] Hot plate latency was assessed at 0, 30, 45 and 60 minutes after administration of the butorphanol. Area under the curve was calculated using a graph between % MPE and time. Area under the curve was employed as a quantitative measure of the analgesic effect of the treatments.
# Nociceptive threshold was measured with the Eddy's hot plate test. […] Reaction time is expressed as a percentage of the maximum possible effect (MPE): […]
# The anti-nociceptive effect following intragastric, intra-ileal and intra-colonic administration was assessed in terms of area under the curve calculated from a graph having time (relative to dosing time point) on the x-axis and percent maximum possible effect (% MPE) on the y-axis. The results were expressed as mean±standard error of means (S.E.M.). […]
# [2] = test system: vincristine induced painful neuropathy; experiment: Vincristine induced painful neuropathy, cold allodynia (acetone drop test); details: vincristine neuropathic rats
# Description: The aim of this study was to evaluate the effect of oral administration of butorphanol in rats with vincristine induced painful neuropathy. The primary measurements were made mechanical and thermal allodynia designed to detect effects of the treatment(s) on neuropathic pain.
# as §1
# The vincristine model was adapted from Authier et al (1999). Rats were injected on five alternate days (day 4, 6, 8, 10 & 12) with vincristine (200 μg/kg i.p.) using an injection volume of 2 ml/kg. Thus, the cumulative dose of vincristine was computed to be 1 mg/kg. Tests took place three days after the last injection and continued over the next three weeks. […]
# as §2, §3, §4
compound,measurement,setting,value
"Oc1ccc2c(c1)[C@@]13CCCC[C@@]1(O)[C@@H](C2)N(CC1CCC1)CC3 [butorphanol, (−)17-(Cyclobutylmethyl)morphinan-3,14-diol]",cold allodynia withdrawal threshold in comparison to the control readings,[1]; oral,significant increase
same,time of peak effect post-administration (cold allodynia),[1]; oral,30 min
same,cold allodynia score,"[1]; p.o. 0.01, 0.03, 0.1, 0.3 mg/kg, FIG. 18",dose dependent decrease
same,"antinociceptive effect (area under the curve of % MPE vs time), intra-colonic versus intra-gastric or intra-ileal","nociception in rats; hot plate, FIG. 14",significantly greater antinociceptive effect
same,hot plate latency,"nociception in rats; intra-gastric, intra-ileal and intra-colonic administration, each, rats",significant increase
same,cold allodynia score,"[2]; oral 1, 3, 10, 30 mg/kg, FIG. 16",dose dependent decrease
same,cold allodynia withdrawal threshold in comparison to the control readings,[2]; oral,significant increase
same,time of peak effect post-administration (cold allodynia),[2]; oral,30 min
